# From patent US20230048888A1, “USE OF TRIAZOLOTRIAZINE DERIVATIVE IN TREATMENT OF DISEASES” (ZHEJIANG VIMGREEN PHARMACEUTICALS, LTD., priority 2019, published 2023)
# Experiments:
# adenosine receptor A2b = molecular target: T1, adenosine receptor A2b (Homo sapiens, UniProt P29275); assay: cAMP experiment on Gs-coupled adenosine receptor A2b (HEK293); format: cell-based; conditions: cAMP accumulation, NECA EC80; read-out: IC50 (nM) HEK293 cells (ADORA2B)
# T1 construct: host or cells: HEK293
# T1 sequence (P29275 1-332): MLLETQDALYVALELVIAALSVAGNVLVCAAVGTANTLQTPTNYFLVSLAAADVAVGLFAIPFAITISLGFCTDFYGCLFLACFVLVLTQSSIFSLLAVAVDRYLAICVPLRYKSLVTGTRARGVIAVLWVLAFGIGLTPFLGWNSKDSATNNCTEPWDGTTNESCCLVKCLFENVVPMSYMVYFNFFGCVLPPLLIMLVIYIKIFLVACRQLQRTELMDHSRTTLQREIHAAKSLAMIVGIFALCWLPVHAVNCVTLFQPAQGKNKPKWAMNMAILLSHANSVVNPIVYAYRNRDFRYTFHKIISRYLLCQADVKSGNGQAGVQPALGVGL
# Procedure: In this experiment, a HEK293 cell line stably expressing the adenosine receptor A2b was taken as a study object (PerkinElmer, ES-013-C) for the experiment. […] A solution system for cell inoculation was 10 μL of cAMP experimental buffer. […] Similarly, 10 mM test compound was also subjected to 3-fold gradient dilution in 100% DMSO. The gradient-diluted reference compound and test compound were added to a 384-well compound plate (Labcyte, PP-0200). 10 nL of the gradient-diluted reference agonist NECA per well was transferred to a test plate containing cells by using Echo (Labcyte, 550), and the test plate was incubated for 30 minutes at 37° C. 5 μL of Eu-cAMP tracer working solution and 5 μL of ULight-anti-cAMP working solution (PerkinElmer, TRF0263) were added to the test plate per well, and the test plate was incubated for 30 minutes at 25° C. […] 1000×EC80 NECA was prepared with 100% DMSO. […] The test plate was incubated for 20 minutes at 25° C., and then 10 nL of the 1000×EC80 NECA per well was transferred to the test plate. The test plate was incubated for 30 minutes at 37° C. 5 μL of Eu-cAMP tracer working solution and 5 μL of ULight-anti-cAMP working solution were added to the test plate per well, and the test plate was incubated for 30 minutes at 25° C. The fluorescence signal ratio of each well in the test plate was read, and the IC50 value of the compound was calculated by using the output data of the reference inhibitor and test compound and the concentration of the compound.
# [1] = Pharmacokinetics of Compounds 22, 27 and 40 in SD rats after oral administration for 7 consecutive days; format: in vivo; conditions: for Accumulation after consecutive administration: SD rats; for AUC / AUC(0-t) / Cmax / Tmax: rat, plasma; for AUC / Cavg / Cmin / AUC(0-t) / Cmax / Tmax: male SD rats; for AUC(0-t) / Cmax / Tmax: male, po, 30 mg/kg; for Tmax: median
# Procedure: 12 male SD rats (about 7-9 weeks old on the day of administration, 283.0-298.1 g) were purchased from SPF (Beijing) Biotechnology Co., Ltd. They were randomly divided into 3 groups, with 4 rats in each group, and received orally administration once daily for 7 consecutive days. Compound 27 was administrated to Group 1 at 30 mg/kg, Compound 22 was administrated to Group 2 at 30 mg/kg, and Compound 40 was administrated to Group 3 at 30 mg/kg. All animals had free access to water and diet during dosing.
# 0.3366 g of Compound 27, 0.3333 g of Compound 22 and 0.3366 g of Compound 40 were weighed out respectively, and dissolved in 44 mL of PEG400 with stirring and ultrasonication; 50 mL of PBS was added to the resulting mixture, stirred and sonicated for complete dissolution; PBS was added to fix the volume to the final volume of 110 mL, thereby obtaining the target formulation solution with the final concentration of 3.0 mg/mL. The prepared formulation solution was divided into 7 portions, each of 15 mL, and stored in a refrigerator at 4° C. Before administration, the formulation was held at room temperature, until its temperature returned to room temperature; the formulation was stirred at room temperature for at least 10 minutes; and the stirring continued during the administration. The entire process for preparing the formulation was operated under yellow light, and during transferring, the prepared formulation was wrapped with tin foil to protect it from light.
# The concentrations of Compounds 27, 22 and 40 in the plasma of SD rats were determined by liquid chromatography-mass spectrometry, with […] as the internal standard compound. With the mass spectrometer scanning in the electrospray ion source positive ion mode, the mass-to-charge ratios of parent ions to daughter ions in Compounds 27, 40 and 22 and tolbutamide were 395.2→178.2, 404.2→158.9, 393.4→146.2 and 455.2→165.0, respectively.
# The pharmacokinetic parameters of Compounds 27, 40 and 22 were calculated by the software Phoenix™ WinNonlin Version 6.1 using the non-compartmental model. Pharmacokinetic data was calculated using the linear logarithmic trapezoidal method, with a weight of 1/Y*Y. Samples with the sample concentration below the lower limit of quantification were excluded from the calculation of pharmacokinetic parameters. […] The mean time to peak (Tmax) was represented as a median.
# [2] = Pharmacokinetics of Compounds 27, 40, 22 and 41 in ICR mice in different modes of administration; format: in vivo; conditions: for Drug accumulation after consecutive oral administration: 30 mg/kg oral; for AUC(0-t) / Cmax / half-life: ICR; for AUC(0-t) / Cmax / half-life / clearance: mouse, in vivo; for clearance: IV, read-out: Cl—pred (converted)
# Source text: WinNonlin® 6.4 was used as the calculation software for PK parameters.
# [3] = oral 30 mg/kg once a day for 7 consecutive days
# [4] = Sprague-Dawley, oral 30 mg/kg once a day for 7 consecutive days, Day 7, mean
# [5] = oral 30 mg/kg once a day for 7 consecutive days, Day 7, mean
# [6] = Sprague-Dawley (SD), oral 30 mg/kg once a day, Day 1, read-out: drug exposure AUC0-t
# [7] = Sprague-Dawley (SD), oral 30 mg/kg once a day, Day 1, read-out: maximum plasma concentration Cmax
# [8] = Sprague-Dawley (SD), oral 30 mg/kg once a day, seventh day, read-out: drug exposure AUC0-t
# [9] = Sprague-Dawley (SD), oral 30 mg/kg once a day, seventh day, read-out: maximum plasma concentration Cmax
# [10] = Sprague-Dawley, oral 30 mg/kg once a day for 7 consecutive days, Day 7, mean, read-out: AUC0-t
# [11] = Sprague-Dawley, oral 30 mg/kg once a day for 7 consecutive days, Day 7, mean, read-out: Cmax
# [12] = Sprague-Dawley, oral 30 mg/kg once a day for 7 consecutive days, Day 7
# [13] = Sprague-Dawley, oral 30 mg/kg once a day, Day 1, mean, read-out: AUC0-t
# [14] = Sprague-Dawley, oral 30 mg/kg once a day, Day 1, mean, read-out: Cmax
# [15] = Sprague-Dawley, oral 30 mg/kg once a day, Day 1
# [16] = po, 30 mg/kg, PO (after 7 consecutive days of administration), 30 mg/kg
# [17] = PO (after 7 consecutive days of administration), 30 mg/kg
IC50 (adenosine receptor A2b) [nM],"Accumulation after consecutive administration [1, 3]","AUC [1, 4] [µg·h/mL]","Cavg [1, 5] [µg/mL]","Cmin [1, 5] [µg/mL]","AUC(0-t) [1, 6] [µg·h/mL]","Cmax [1, 7] [µg/mL]","AUC(0-t) [1, 8] [µg·h/mL]","Cmax [1, 9] [µg/mL]","AUC(0-t) [1, 10] [µg·h/mL]","Cmax [1, 11] [µg/mL]","Tmax [1, 12] [h]","AUC(0-t) [1, 13] [µg·h/mL]","Cmax [1, 14] [µg/mL]","Tmax [1, 15] [h]","AUC(0-t) ([2]; iv, 1 mg/kg) [µg·h/mL]","Cmax ([2]; iv, 1 mg/kg) [µg/mL]","half-life ([2]; iv, 1 mg/kg) [h]","AUC(0-t) ([2]; po, 5 mg/kg) [µg·h/mL]",SMILES,Drug accumulation after consecutive oral administration [2],further results
307,do not show significant accumulation,22.2,0.925,0.00923,29.6,7.1,22.2,4.62,22.2,4.62,1.5,29.6,7.1,2,0.495,0.993,0.67,3.1,"COCCNc1ccc(CCNc2nc(N)n3nc(-c4ccco4)nc3n2)cc1 [Compound 27, 2-(furan-2-yl)-N5-(4-((2-methoxyethyl)amino)phenethyl)-[1,2,4]triazolo[1,5-a][1,3,5]triazine-5,7-diamine]",significant drug accumulation is not observed,"Cmax ([2]; po, 5 mg/kg): 1.55 µg/mL; half-life ([2]; po, 5 mg/kg): 1.19 h; AUC(0-t) [2, 16]: 41.7 µg·h/mL; Cmax [2, 16]: 17.3 µg/mL; half-life [2, 16]: 1.86 h; AUC(0-t) ([2]; po, 30 mg/kg, PO (single)): 33.6 µg·h/mL; Cmax ([2]; po, 30 mg/kg, PO (single)): 14.5 µg/mL; half-life ([2]; po, 30 mg/kg, PO (single)): 1.12 h; Cl—F—pred [2, 17]: 0.72 L/h/kg; Cl—F—pred ([2]; PO (single), 30 mg/kg): 0.92 L/h/kg; Cl—F—pred ([2]; PO, 5 mg/kg): 1.65 L/h/kg; F ([2]; PO, 5 mg/kg): 125.29%; clearance ([2]; 1 mg/kg): 2.03 L/h/kg"
343,do not show significant accumulation,6.58,0.274,0.0523,5.15,0.503,6.58,0.581,6.58,0.581,4,5.15,0.503,3,1.54,1.88,2.49,5.54,"Cn1nnc(-c2ccc(CCNc3nc(N)n4nc(-c5ccco5)nc4n3)cc2)n1 [Compound 40, N5-(4-(2-methyl-2H-tetrazol-5-yl)phenethyl)-2-(furan-2-yl)-[1,2,4]triazolo[1,5-a][1,3,5]triazine-5,7-diamine]",significant drug accumulation is not observed,"Cmax ([2]; po, 5 mg/kg): 2.13 µg/mL; half-life ([2]; po, 5 mg/kg): 2.36 h; AUC(0-t) [2, 16]: 10.6 µg·h/mL; Cmax [2, 16]: 2.33 µg/mL; half-life [2, 16]: 2.79 h; AUC(0-t) ([2]; po, 30 mg/kg, PO (single)): 24.4 µg·h/mL; Cmax ([2]; po, 30 mg/kg, PO (single)): 14.4 µg/mL; half-life ([2]; po, 30 mg/kg, PO (single)): 1.65 h; Cl—F—pred [2, 17]: 2.82 L/h/kg; Cl—F—pred ([2]; PO (single), 30 mg/kg): 1.23 L/h/kg; Cl—F—pred ([2]; PO, 5 mg/kg): 0.90 L/h/kg; F ([2]; PO, 5 mg/kg): 71.99%; clearance ([2]; 1 mg/kg): 0.65 L/h/kg"

SMILES,IC50 (adenosine receptor A2b) [nM],"Accumulation after consecutive administration [1, 3]","AUC [1, 4] [µg·h/mL]","Cavg [1, 5] [µg/mL]","Cmin [1, 5] [µg/mL]","AUC(0-t) [1, 6] [µg·h/mL]","Cmax [1, 7] [µg/mL]","AUC(0-t) [1, 8] [µg·h/mL]","Cmax [1, 9] [µg/mL]","AUC(0-t) [1, 10] [µg·h/mL]","Cmax [1, 11] [µg/mL]","Tmax [1, 12] [h]","AUC(0-t) [1, 13] [µg·h/mL]","Cmax [1, 14] [µg/mL]","Tmax [1, 15] [h]","AUC(0-t) ([2]; iv, 1 mg/kg) [µg·h/mL]","Cmax ([2]; iv, 1 mg/kg) [µg/mL]","half-life ([2]; iv, 1 mg/kg) [h]","AUC(0-t) ([2]; po, 5 mg/kg) [µg·h/mL]",Drug accumulation after consecutive oral administration [2],further results
"Nc1nc(NCCc2ccc(NC3COC3)cc2)nc2nc(-c3ccco3)nn12 [Compound 22, 2-(furan-2-yl)-N5-(4-(oxetan-3-ylamino)phenethyl)-[1,2,4]triazolo[1,5-a][1,3,5]triazine-5,7-diamine]",380,do not show significant accumulation,6.95,0.29,0.0114,6.63,1.02,6.95,0.947,6.95,0.947,1.5,6.63,1.02,4,0.925,1.69,0.94,3.96,significant drug accumulation is not observed,"Cmax ([2]; po, 5 mg/kg): 3.51 µg/mL; half-life ([2]; po, 5 mg/kg): 2.74 h; AUC(0-t) [2, 16]: 15.4 µg·h/mL; Cmax [2, 16]: 4.8 µg/mL; half-life [2, 16]: 3.04 h; AUC(0-t) ([2]; po, 30 mg/kg, PO (single)): 18 µg·h/mL; Cmax ([2]; po, 30 mg/kg, PO (single)): 9.65 µg/mL; half-life ([2]; po, 30 mg/kg, PO (single)): 2.22 h; Cl—F—pred [2, 17]: 1.95 L/h/kg; Cl—F—pred ([2]; PO (single), 30 mg/kg): 1.67 L/h/kg; Cl—F—pred ([2]; PO, 5 mg/kg): 1.26 L/h/kg; F ([2]; PO, 5 mg/kg): 85.72%; clearance ([2]; 1 mg/kg): 1.09 L/h/kg"
